According to ChEMBL document CHEMBL1159220, “Additional dolabellane diterpenes from the Caribbean gorgonian octocoral Eunicea laciniata” (J Nat Prod, 1995):
Converted amounts (≈) assume the structure as drawn.

What follows are compounds tested on HeLa (assay: Cytotoxicity against human HeLa cells).
Type: functional, cell-based
Work on CC(C)=C1CC[C@@]2(C)C(=O)/C=C(/C)CC/C=C(/C)CC[C@H]12 [EDUENONE] yielded an IC50 of 50 µg/mL (≈ 175 µM). Compound C/C1=C/C(=O)[C@]2(C)CC(=O)[C@H](C(C)C)[C@H]2CC/C(C)=C\CC1 [EDUDIONE] has an IC50 greater than 100 µg/mL. Compound CC(C)=C1CC[C@@]2(C)C(=O)C[C@H](C)CC/C=C(\C)CC[C@H]12 [EDUNONE] has an IC50 of 25 µg/mL (≈ 86.7 µM). C=C(C)[C@@]1(O)CC[C@@]2(C)C/C=C(\C)CC/C=C(\C)CC[C@@H]21 [EDUNOL] showed an IC50 of 25 µg/mL (≈ 86.7 µM).
